Laboratory results: PubChem BioAssay (NCI)
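Method: 48-hour compound exposure of cells in 96-well plates, five concentrations, linear interpolation of endpoints. TGI is the concentration that stops growth completely.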

Legend:
Assay in all cases: NCI anticancer screen, dose series, 48 h
[1] = tested on: SK-OV-3 ovarian
[2] = tested on: SN12C renal
[3] = tested on: OVCAR-5 ovarian
[4] = tested on: HOP-92 NSCLC
[5] = tested on: MDA-N
[6] = tested on: UACC-257 melanoma
[7] = tested on: HS 578T breast
[8] = tested on: SF-539 CNS
[9] = tested on: UACC-62 melanoma
[10] = tested on: RXF 393 renal
[11] = tested on: DU-145 prostate
[12] = tested on: NCI/ADR-RES ovarian
[13] = tested on: HL-60(TB) leukemia
[14] = tested on: IGROV1 ovarian
[15] = tested on: ACHN renal
[16] = tested on: NCI-H460 lung
[17] = tested on: CCRF-CEM leukemia
[18] = tested on: HCT-15 colon
[19] = tested on: SNB-19 CNS
[20] = tested on: T-47D breast
[21] = tested on: KM12 colon
[22] = tested on: HT29 colon
[23] = tested on: MCF7 breast
[24] = tested on: MDA-MB-231 breast
[25] = tested on: PC-3 prostate
[26] = tested on: SF-268 CNS
[27] = tested on: K-562 leukemia
[28] = tested on: CAKI-1 renal
[29] = tested on: RPMI-8226 leukemia
[30] = tested on: SR leukemia
[31] = tested on: SK-MEL-2 melanoma
[32] = tested on: OVCAR-8 ovarian
[33] = tested on: SF-295 CNS
[34] = tested on: U251 CNS
[35] = tested on: OVCAR-3 ovarian
[36] = tested on: A549 NSCLC
[37] = tested on: COLO 205 colon
[38] = tested on: LOX IMVI melanoma
[39] = tested on: HCT-116 colon
[40] = tested on: MDA-MB-435
[41] = tested on: NCI-H522 lung
[42] = tested on: 786-0 renal
[43] = tested on: HOP-62 NSCLC
[44] = tested on: NCI-H23 lung
[45] = tested on: UO-31 renal
[46] = tested on: M14 melanoma
[47] = tested on: MOLT-4 leukemia
[48] = tested on: NCI-H226 lung
[49] = tested on: SW-620 colon
[50] = tested on: SK-MEL-5 melanoma
[51] = tested on: A498 renal
[52] = tested on: OVCAR-4 ovarian
[53] = tested on: EKVX NSCLC
[54] = tested on: SK-MEL-28 melanoma
[55] = tested on: SNB-75 CNS
[56] = tested on: TK-10 renal

`COc1ccccc1-c1cc(=O)c2ccccc2n1C1CC1` showed a TGI [1] of 41.1 µM, a TGI [2] of 19.5 µM and a TGI [3] of 14.2 µM. It also gave a TGI [4] of 19.8 µM, a TGI [5] of 18 µM and a TGI [6] of 26.6 µM. The TGI [7] was 25.7 µM, the TGI [8] was 16.5 µM and the TGI [9] was 11.5 µM. For the same molecule, the TGI [10] was 6.62 µM, the TGI [11] was 14.4 µM and the TGI [12] was 31.3 µM. The TGI [13] was 35.5 µM, the TGI [14] was 44 µM and the TGI [15] was 5.78 µM. It also gave a TGI [16] of 15.7 µM, a TGI [17] of 56.1 µM and a TGI [18] of 12.2 µM. It also gave a TGI [19] of 34.3 µM, a TGI [20] of 9.73 µM and a TGI [21] of 12 µM. For the same molecule, the TGI [22] was 4.37 µM, the TGI [23] was 18.7 µM and the TGI [24] was 16 µM. It also gave a TGI [25] of 27.8 µM, a TGI [26] of 20.5 µM and a TGI [27] greater than 100 µM. It also gave a TGI [28] of 14.1 µM, a TGI [29] of 5.64 µM and a TGI [30] of 18.7 µM. For the same molecule, the TGI [31] was 8.07 µM, the TGI [32] was 18.1 µM and the TGI [33] was 7.99 µM. For the same molecule, the TGI [34] was 14.2 µM, the TGI [35] was 11 µM and the TGI [36] was 12.8 µM. For the same molecule, the TGI [37] was 11.1 µM, the TGI [38] was 15.5 µM and the TGI [39] was 10.4 µM. It also gave a TGI [40] of 12.5 µM, a TGI [41] of 5.63 µM and a TGI [42] of 15.3 µM. The TGI [43] was 15.4 µM, the TGI [44] was 22.8 µM and the TGI [45] was 19 µM. The TGI [46] was 16.2 µM, the TGI [47] was 45.9 µM and the TGI [48] was 15 µM. The TGI [49] was 15.8 µM and the TGI [50] was 14.8 µM.
For `C=CCCC1CCCCC/C1=N\N(C)C` (stereo not given), the TGI [1] was greater than 100 µM, the TGI [51] was greater than 100 µM and the TGI [2] was greater than 100 µM. It also gave a TGI [3] greater than 100 µM, a TGI [4] greater than 100 µM and a TGI [5] greater than 100 µM. It also gave a TGI [52] greater than 100 µM, a TGI [53] greater than 100 µM and a TGI [6] greater than 100 µM. It also gave a TGI [7] greater than 100 µM, a TGI [8] greater than 100 µM and a TGI [9] greater than 100 µM. It also gave a TGI [11] greater than 100 µM, a TGI [12] greater than 100 µM and a TGI [13] greater than 100 µM. For the same molecule, the TGI [14] was greater than 100 µM, the TGI [15] was greater than 100 µM and the TGI [16] was greater than 100 µM. It also gave a TGI [17] greater than 100 µM, a TGI [18] greater than 100 µM and a TGI [19] greater than 100 µM. It also gave a TGI [20] greater than 100 µM, a TGI [21] greater than 100 µM and a TGI [22] greater than 100 µM. It also gave a TGI [23] greater than 100 µM, a TGI [24] greater than 100 µM and a TGI [25] greater than 100 µM. The TGI [26] was greater than 100 µM, the TGI [54] was greater than 100 µM and the TGI [27] was greater than 100 µM. It also gave a TGI [28] greater than 100 µM, a TGI [29] greater than 100 µM and a TGI [30] greater than 100 µM. The TGI [31] was greater than 100 µM, the TGI [32] was greater than 100 µM and the TGI [33] was greater than 100 µM. For the same molecule, the TGI [34] was greater than 100 µM, the TGI [55] was greater than 100 µM and the TGI [35] was greater than 100 µM. It also gave a TGI [36] greater than 100 µM, a TGI [37] greater than 100 µM and a TGI [38] greater than 100 µM. The TGI [39] was greater than 100 µM, the TGI [56] was greater than 100 µM and the TGI [40] was greater than 100 µM. The TGI [41] was greater than 100 µM, the TGI [42] was greater than 100 µM and the TGI [43] was greater than 100 µM. The TGI [44] was greater than 100 µM, the TGI [45] was greater than 100 µM and the TGI [46] was greater than 100 µM. For the same molecule, the TGI [47] was greater than 100 µM, the TGI [48] was greater than 100 µM and the TGI [49] was greater than 100 µM. For the same molecule, the TGI [50] was greater than 100 µM.
